Assay results from ChEMBL document CHEMBL1201862, “PubChem BioAssay data set” (2004).
Calls of active or inactive are those of the source.

How the values were obtained:
[1] = StAR promoter reporter inhibition counter-screen, dose response, counter-screen for LRH-1 inverse agonist project, cell-based, luminescence, luciferase reporter (AID 651969); format: functional
[2] = target: Nuclear receptor subfamily 5 group A member 2 (Homo sapiens, UniProt O00482); format: functional, cell-based;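 also: HEK293T cells transfected with LRH-1 and a StAR promoter luciferase reporter; potency for inhibitors that lower LRH-1 driven reporter light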
Steroidogenic factor 1 = Steroidogenic factor 1 (Homo sapiens, UniProt Q13285); test: Counterscreen for inverse agonists of the liver receptor homolog-1 (LRH-1; NR5A2): Luminescence-based cell-based high throughput dose response assay to identify inverse agonists of the Steroidogenic Factor 1 Nuclear Receptor (SF1; NR5A1).; format: functional
[3] = target: T1, Corticotropin-releasing factor receptor 2/Corticotropin-releasing factor-binding protein (Homo sapiens, UniProt P24387+Q13324); test: activators of CRF receptor 2 with binding protein – uHTS hits, confirmation (AID 602473); format: functional; conditions: read-out: EC50_Mean
T1 sequence (Q13324 whole entry): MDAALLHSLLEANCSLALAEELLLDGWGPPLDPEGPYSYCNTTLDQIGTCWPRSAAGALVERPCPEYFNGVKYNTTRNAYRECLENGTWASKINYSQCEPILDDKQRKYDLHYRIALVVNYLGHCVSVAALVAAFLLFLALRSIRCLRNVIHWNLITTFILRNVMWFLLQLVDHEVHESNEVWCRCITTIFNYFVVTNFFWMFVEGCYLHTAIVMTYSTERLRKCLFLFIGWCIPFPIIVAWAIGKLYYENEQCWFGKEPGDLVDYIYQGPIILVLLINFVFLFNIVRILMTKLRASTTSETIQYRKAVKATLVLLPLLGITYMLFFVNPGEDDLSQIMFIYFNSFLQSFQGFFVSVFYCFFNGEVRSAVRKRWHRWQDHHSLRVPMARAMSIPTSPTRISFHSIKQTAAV
T1 sequence (P24387 whole entry): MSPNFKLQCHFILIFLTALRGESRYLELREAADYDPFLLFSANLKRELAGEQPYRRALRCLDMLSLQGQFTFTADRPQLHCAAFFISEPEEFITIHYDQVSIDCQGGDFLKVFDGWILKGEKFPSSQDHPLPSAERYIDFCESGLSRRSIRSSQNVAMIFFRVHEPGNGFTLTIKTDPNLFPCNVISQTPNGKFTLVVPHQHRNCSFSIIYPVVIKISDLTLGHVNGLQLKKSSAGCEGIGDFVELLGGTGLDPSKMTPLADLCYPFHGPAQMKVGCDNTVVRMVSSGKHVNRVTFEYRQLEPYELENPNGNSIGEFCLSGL

[4] = CRF-BP/CRF-R2 complex antagonists, dose response, cell-based, uHTS hits, 384-well (AID 651639); format: functional, Homo sapiens; conditions: read-out: IC50_Mean
[5] = target: T1, Corticotropin-releasing factor receptor 2/Corticotropin-releasing factor-binding protein; test: Dose Response confirmation of uHTS hits for small molecule antagonists of the CRF-binding protein and CRF-R2 receptor complex.; format: functional; conditions: read-out: IC50_Mean
[6] = target: T2, Small ubiquitin-related modifier 1 (Homo sapiens, UniProt P63165); test: inhibitors of SUMO1 peptide binding, dose response, biochemical, fluorescence polarization, uHTS hits (AID 624382); format: functional; conditions: read-out: IC50_Mean
[7] = target: T2, Small ubiquitin-related modifier 1; test: inhibitors of SUMO1 partner interactions, dose response, biochemical, FRET (AID 624383); format: functional; conditions: read-out: IC50_Mean
[8] = target: T3, Rac GTPase-activating protein 1 (Homo sapiens, UniProt Q9H0H5); test: MgcRacGAP GTPase-activating activity inhibitors, confirmation, biochemical, ADP Hunter fluorescence, primary and confirmatory (AID 624330); format: functional
T3 sequence (Q9H0H5 whole entry): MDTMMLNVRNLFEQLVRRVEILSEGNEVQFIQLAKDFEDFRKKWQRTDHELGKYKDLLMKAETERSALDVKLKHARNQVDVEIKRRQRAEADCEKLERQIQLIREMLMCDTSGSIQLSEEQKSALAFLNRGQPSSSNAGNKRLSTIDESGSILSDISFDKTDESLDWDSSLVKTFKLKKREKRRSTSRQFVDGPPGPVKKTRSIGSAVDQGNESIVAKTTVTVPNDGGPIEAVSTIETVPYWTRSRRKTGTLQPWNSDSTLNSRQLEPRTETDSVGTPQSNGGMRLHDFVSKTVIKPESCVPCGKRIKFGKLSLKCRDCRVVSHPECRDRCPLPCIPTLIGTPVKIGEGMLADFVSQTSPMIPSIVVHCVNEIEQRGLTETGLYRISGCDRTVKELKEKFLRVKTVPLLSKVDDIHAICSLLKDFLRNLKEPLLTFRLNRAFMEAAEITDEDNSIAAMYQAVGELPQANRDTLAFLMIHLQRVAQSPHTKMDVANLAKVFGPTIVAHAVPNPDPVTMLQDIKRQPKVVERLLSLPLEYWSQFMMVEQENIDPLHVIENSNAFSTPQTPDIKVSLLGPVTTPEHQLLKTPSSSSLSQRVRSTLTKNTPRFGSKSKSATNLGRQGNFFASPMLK

[9] = HeLa cell cytotoxicity, dose response, cytotoxicity control for MgcRacGAP inhibitor project (AID 624300); format: functional

T2 sequence (P63165 whole entry): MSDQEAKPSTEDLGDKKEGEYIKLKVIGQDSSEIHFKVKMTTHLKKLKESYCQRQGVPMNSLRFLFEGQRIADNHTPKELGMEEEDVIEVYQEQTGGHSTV
Chain of Nuclear receptor subfamily 5 group A member 2 (O00482 whole entry): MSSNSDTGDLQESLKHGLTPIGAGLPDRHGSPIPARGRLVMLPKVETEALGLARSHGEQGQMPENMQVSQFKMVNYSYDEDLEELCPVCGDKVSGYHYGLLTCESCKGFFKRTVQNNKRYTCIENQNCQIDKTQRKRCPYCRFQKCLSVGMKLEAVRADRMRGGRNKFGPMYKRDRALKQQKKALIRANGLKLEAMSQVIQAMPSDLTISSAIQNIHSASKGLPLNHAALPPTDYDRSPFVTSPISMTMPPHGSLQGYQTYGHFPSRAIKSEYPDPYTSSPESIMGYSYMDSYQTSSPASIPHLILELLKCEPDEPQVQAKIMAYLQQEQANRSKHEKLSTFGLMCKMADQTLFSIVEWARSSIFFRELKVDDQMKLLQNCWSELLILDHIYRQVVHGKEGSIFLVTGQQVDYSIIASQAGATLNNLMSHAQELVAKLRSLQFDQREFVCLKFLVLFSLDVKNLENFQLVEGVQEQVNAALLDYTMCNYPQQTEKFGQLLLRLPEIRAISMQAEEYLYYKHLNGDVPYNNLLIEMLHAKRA
Chain of Steroidogenic factor 1 (Q13285 whole entry): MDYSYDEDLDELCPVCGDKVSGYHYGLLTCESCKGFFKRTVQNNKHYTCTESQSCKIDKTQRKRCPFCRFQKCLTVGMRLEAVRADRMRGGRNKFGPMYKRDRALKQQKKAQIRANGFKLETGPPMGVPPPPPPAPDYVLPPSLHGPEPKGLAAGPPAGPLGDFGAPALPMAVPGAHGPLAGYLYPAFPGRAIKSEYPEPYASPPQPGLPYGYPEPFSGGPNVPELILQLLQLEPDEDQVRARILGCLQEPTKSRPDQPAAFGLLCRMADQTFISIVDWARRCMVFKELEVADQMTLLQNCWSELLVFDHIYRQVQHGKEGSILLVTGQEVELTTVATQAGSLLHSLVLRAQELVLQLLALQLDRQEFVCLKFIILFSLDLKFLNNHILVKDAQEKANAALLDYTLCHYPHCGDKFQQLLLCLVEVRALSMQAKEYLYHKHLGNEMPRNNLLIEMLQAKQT

SMILES: COc1cccc(C(=O)COc2cccc(NC(=O)c3cccc([N+](=O)[O-])c3)c2)c1
- IC50 [1]: 10.9 µM (inactive)
- IC50 [2]: 0.443 µM (active)
- IC50 (Steroidogenic factor 1): 0.443 µM (active)

SMILES: Cc1ccccc1Cn1nc(C)c(NC(=O)c2cc(-c3cccs3)on2)c1C
- EC50 [3]: > 53 µM (inactive)
- IC50 [4]: > 20 µM (inactive)
- IC50 [5]: 39.1 µM (active)

SMILES: COC(=O)c1ccc(NC(=O)CSc2nn3c(=O)c(C)nnc3s2)cc1
- IC50 [1]: 35.9 µM (inactive)
- IC50 [2]: 35.9 µM (inactive)
- IC50 (Steroidogenic factor 1): 35.9 µM (inactive)

SMILES: Cc1ccc(S(=O)(=O)N2CCOCC2)cc1C(=O)OCC(=O)Nc1ccc2[nH]c(O)nc2c1
- IC50 [6]: > 66.6 µM (inactive)
- IC50 [7]: 11.4 µM (active)

SMILES: CCOc1cc(/C=C2\C(=O)N(CCc3ccc(OC)c(OC)c3)C(C)=C2C(=O)OC)ccc1O
- IC50 [8]: 118 µM (active)
- CC50 [9]: 100 µM (active)

SMILES: COc1cccc(C2(c3cccc(OC)c3)CC2C(=O)Nc2ccccc2Cl)c1 (stereo unspecified)
- EC50 [3]: > 53 µM (inactive)
- IC50 [4]: > 20 µM (inactive)
- IC50 [5]: 3.83 µM (active)
